# Organism: Rattus norvegicus
# Assay: Open TG-GATES - Regimen: Single
# Format: toxicity, organism-based, Sprague-Dawley
# Parameters: regimen Single, gender Male, age 6 weeks
# Conditions: in vivo, ip, 0 mg/kg, route intraperitoneal injection, dose 0 ug/Kg, dose level Control; for APTT / Bas / Eos / Fbg / Hb / Ht / Lym / MCH / MCHC / MCV / Mono / Neu / PT / Plat / RBC / Ret / WBC: tissue Blood; for KIDNEY_L / KIDNEY_R / KIDNEY_TOTAL: tissue Kidney; for LIVER: tissue Liver; for A/G / ALP / ALT / AST / BUN / CRE / Ca / Cl / DBIL / GLC / IP / K / LDH / Na / PL / RALB / TBIL / TC / TG / TP / gamma-GTP: tissue Plasma
smiles,measurement,setting,value
CC(=O)N[C@H]1[C@@H](O[C@@H]2O[C@H](CC(O)[C@H]3O[C@@H](n4ccc(=O)[nH]c4=O)[C@H](O)[C@@H]3O)[C@H](O)[C@H](O)[C@H]2NC(=O)/C=C/CC(C)C)O[C@H](CO)[C@@H](N)[C@@H]1O (some centres not stated) [TUNICAMYCIN],TERMINAL_BW,3 h,221.9 g
same,APTT,3 h,21.5 s
same,Bas,3 h,0%
same,Eos,3 h,0.5%
same,Fbg,3 h,293.8 mg/dL
same,Hb,3 h,13 g/dL
same,Ht,3 h,39.6%
same,Lym,3 h,77%
same,MCH,3 h,21.1 pg
same,MCHC,3 h,32.9%
same,MCV,3 h,64.1 fL
same,Mono,3 h,2.8%
same,Neu,3 h,18.8%
same,PT,3 h,15.8 s
same,Plat,3 h,103.5 x10_4/uL
same,RBC,3 h,617.8 x10_4/ul
same,Ret,3 h,8.1%
same,WBC,3 h,129.5 x10_2/uL
same,KIDNEY_L,3 h,1 g
same,KIDNEY_R,3 h,1 g
same,KIDNEY_TOTAL,3 h,2 g
same,LIVER,3 h,10.3 g
same,A/G,3 h,1.2
same,ALP,3 h,1530.2 IU/L
same,ALT,3 h,45 IU/L
same,AST,3 h,75 IU/L
same,BUN,3 h,14 mg/dL
same,CRE,3 h,0.2 mg/dL
same,Ca,3 h,10.6 mg/dL
same,Cl,3 h,106.5 meq/L
same,DBIL,3 h,0 mg/dL
same,GLC,3 h,175.2 mg/dL
same,IP,3 h,8.4 mg/dL
same,K,3 h,4.4 meq/L
same,LDH,3 h,176.5 IU/L
same,Na,3 h,140.2 meq/L
same,PL,3 h,127.5 mg/dL
same,RALB,3 h,2.9 g/dL
same,TBIL,3 h,0.0125 mg/dL
same,TC,3 h,71.8 mg/dL
same,TG,3 h,72.5 mg/dL
same,TP,3 h,5.3 g/dL
same,gamma-GTP,3 h,1 IU/L
same,TERMINAL_BW,6 h,222.7 g
same,APTT,6 h,22.4 s
same,Bas,6 h,0%
same,Eos,6 h,0.4%
same,Fbg,6 h,306.8 mg/dL
same,Hb,6 h,13 g/dL
same,Ht,6 h,40.2%
same,Lym,6 h,75.2%
same,MCH,6 h,20.6 pg
same,MCHC,6 h,32.4%
same,MCV,6 h,63.4 fL
same,Mono,6 h,2%
same,Neu,6 h,22%
same,PT,6 h,15.4 s
same,Plat,6 h,114.6 x10_4/uL
same,RBC,6 h,634.2 x10_4/ul
same,Ret,6 h,7.9%
same,WBC,6 h,100.9 x10_2/uL
same,KIDNEY_L,6 h,1 g
same,KIDNEY_R,6 h,1 g
same,KIDNEY_TOTAL,6 h,2 g
same,LIVER,6 h,10.1 g
same,A/G,6 h,1.2
same,ALP,6 h,1339.6 IU/L
same,ALT,6 h,39.6 IU/L
same,AST,6 h,68.6 IU/L
same,BUN,6 h,11 mg/dL
same,CRE,6 h,0.1 mg/dL
same,Ca,6 h,10.9 mg/dL
same,Cl,6 h,104.8 meq/L
same,DBIL,6 h,0 mg/dL
same,GLC,6 h,186.8 mg/dL
same,IP,6 h,9.2 mg/dL
same,K,6 h,4.2 meq/L
same,LDH,6 h,142.8 IU/L
same,Na,6 h,142.4 meq/L
same,PL,6 h,133 mg/dL
same,RALB,6 h,2.9 g/dL
same,TBIL,6 h,0.018 mg/dL
same,TC,6 h,74.2 mg/dL
same,TG,6 h,63.2 mg/dL
same,TP,6 h,5.4 g/dL
same,gamma-GTP,6 h,1.2 IU/L
same,TERMINAL_BW,9 h,216.2 g
same,APTT,9 h,22.6 s
same,Bas,9 h,0%
same,Eos,9 h,0.6%
same,Fbg,9 h,299.2 mg/dL
same,Hb,9 h,13.1 g/dL
same,Ht,9 h,40.6%
same,Lym,9 h,81.2%
same,MCH,9 h,20.3 pg
same,MCHC,9 h,32.2%
same,MCV,9 h,63 fL
same,Mono,9 h,1.8%
same,Neu,9 h,15.8%
same,PT,9 h,15.7 s
same,Plat,9 h,118.2 x10_4/uL
same,RBC,9 h,643.6 x10_4/ul
same,Ret,9 h,7.7%
same,WBC,9 h,98.9 x10_2/uL
same,KIDNEY_L,9 h,1 g
same,KIDNEY_R,9 h,1 g
same,KIDNEY_TOTAL,9 h,1.9 g
same,LIVER,9 h,8.6 g
same,A/G,9 h,1.2
same,ALP,9 h,1451.4 IU/L
same,ALT,9 h,37.6 IU/L
same,AST,9 h,71 IU/L
same,BUN,9 h,11.2 mg/dL
same,CRE,9 h,0.1 mg/dL
same,Ca,9 h,10.3 mg/dL
same,Cl,9 h,104.8 meq/L
same,DBIL,9 h,0 mg/dL
same,GLC,9 h,195.4 mg/dL
same,IP,9 h,9.6 mg/dL
same,K,9 h,4.2 meq/L
same,LDH,9 h,158.4 IU/L
same,Na,9 h,141.8 meq/L
same,PL,9 h,128 mg/dL
same,RALB,9 h,2.8 g/dL
same,TBIL,9 h,0.024 mg/dL
same,TC,9 h,74.2 mg/dL
same,TG,9 h,54 mg/dL
same,TP,9 h,5.2 g/dL
same,gamma-GTP,9 h,1 IU/L
same,TERMINAL_BW,24 h,234.3 g
same,APTT,24 h,21.6 s
same,Bas,24 h,0%
same,Eos,24 h,1%
same,Fbg,24 h,295.2 mg/dL
same,Hb,24 h,12.7 g/dL
same,Ht,24 h,39.1%
same,Lym,24 h,78.6%
same,MCH,24 h,20.2 pg
same,MCHC,24 h,32.4%
same,MCV,24 h,62.4 fL
same,Mono,24 h,3.6%
same,Neu,24 h,16.2%
same,PT,24 h,16.2 s
same,Plat,24 h,119.3 x10_4/uL
same,RBC,24 h,626.8 x10_4/ul
same,Ret,24 h,7.3%
same,WBC,24 h,88.7 x10_2/uL
same,KIDNEY_L,24 h,1.1 g
same,KIDNEY_R,24 h,1.1 g
same,KIDNEY_TOTAL,24 h,2.1 g
same,LIVER,24 h,10.8 g
same,A/G,24 h,1.2
same,ALP,24 h,1584.8 IU/L
same,ALT,24 h,42.2 IU/L
same,AST,24 h,71.2 IU/L
same,BUN,24 h,16.6 mg/dL
same,CRE,24 h,0.1 mg/dL
same,Ca,24 h,10.5 mg/dL
same,Cl,24 h,105.2 meq/L
same,DBIL,24 h,0 mg/dL
same,GLC,24 h,184.4 mg/dL
same,IP,24 h,6.8 mg/dL
same,K,24 h,4.6 meq/L
same,LDH,24 h,146.4 IU/L
same,Na,24 h,141.2 meq/L
same,PL,24 h,136 mg/dL
same,RALB,24 h,3.1 g/dL
same,TBIL,24 h,0.008 mg/dL
same,TC,24 h,73.6 mg/dL
same,TG,24 h,70.8 mg/dL
same,TP,24 h,5.5 g/dL
same,gamma-GTP,24 h,1.8 IU/L

# — ChEMBL document CHEMBL3885861, “Open TG-GATES”
